Structures are written as SMILES.

One data set deals with mouse P-388 leukemia. Description: Antitumor effect to mouse P-388 leukemia (ILS). The conditions noted are these: 5 mg/kg, intraperitoneal, once a day for 5 days, P-388 in CDF1 mice. Format: in vivo. The protocol:
Antitumor effects of the products to mouse P-388 leukemia were tested.
(§1) P-388 ascites cells obtained by a successive cultivation in DBA/2 mice were transplanted by the route of intraperitoneal injection into CDF1 mice (10 mice in one group) at a rate of 1×10^6 /mouse. From 24 hours after the transplantation, a solution of each compound in physiological saline solution was injected once a day for 5 days as 5 times by the route of intraperitoneal injection. Each average survival days (T) of the administered group and each average survival days (C) of control group were measured to calculate each percentage increase in life span (ILS(%))

Data set [1] is described as follows: Weight decrease and kidney cell damage in the mice of the P-388 test. The class given is in vivo, CDF1 mice. Particulars: 5 mg/kg intraperitoneal for 5 days. The protocol: as §1
Data set [2] in a line: Solubility of the products of the Examples in water and organic solvents. Format: physicochemical.

For `N.N.[Cl][Pt][Cl]` [Compound No. 5, cis-[diaminedichloroplatinum (II)]], the “ILS (percentage increase in life span, T/C×100)” value in the data set with mouse P-388 leukemia is given as 180%. Besides, in data set [1], the kidney cell damage entry is recorded as “kidney cell damage were observed for all of 10 mice” and the weight decrease entry was “remarkable weight decrease”.
`COC(=O)C(N)C(N)C(=O)OC` (stereo not shown) [Example 1]: the “solubility in benzene and chloroform” value in data set [2] (benzene and chloroform) is listed as “insoluble”. Further, the solubility in ethanol result in data set [2] (ethanol) is given as “soluble”. Besides, in data set [2] (methanol), the solubility in methanol entry is “soluble”. Further, the solubility in water result in data set [2] (water) is “soluble”.

The values are drawn from patent US4372890A, “Platinum compound” (Kureha Kagaku Kogyo Kabushiki Kaisha, priority 1980, dated 1983).
